Experimental data published in ChEMBL document CHEMBL4261625, “Flexibility of small molecular CD4 mimics as HIV entry inhibitors” (Bioorg Med Chem, 2018).
pIC50: −log10 of the molar value.

What was measured:
[1] = Cytotoxicity against human PM1 cells harboring CCR5 co-receptor by WST-8 assay; assay type: cell-based
[2] = target: Envelope glycoprotein gp160 (Human immunodeficiency virus 1) (UniProt Q6QLK5); assay: Induction of conformational changes in HIV1 cYTA48P envelope glycoprotein gp120 infected in PM1/CCR5 cells assessed as mean fluorescence intensity using CD4i monoclonal antibody 4C11 at 100 uM after 15 mins by FACS analysis; assay type: cell-based
[3] = tested on: Human immunodeficiency virus 1; assay: Antiviral activity against HIV1 cYTA48P infected in PM1/CCR5 cells by single round assay; assay type: functional, organism-based; settings: Human immunodeficiency virus 1, cYTA48P
[4] = target: Envelope glycoprotein gp160 (Human immunodeficiency virus 1) (UniProt Q6QLK5); assay: Induction of conformational changes in HIV1 cYTA48P envelope glycoprotein gp120 infected in PM1/CCR5 cells assessed as mean fluorescence intensity using CD4i monoclonal antibody 4C11 at 100 uM after 15 mins by FACS analysis relative to NBD-556; assay type: cell-based
[5] = tested on: Human immunodeficiency virus 1; assay: Antiviral activity against HIV1 cYTA48P infected in PM1/CCR5 cells at 10 uM by single round assay; assay type: functional

Chain of Envelope glycoprotein gp160 (Human immunodeficiency virus 1) (Q6QLK5 1-814): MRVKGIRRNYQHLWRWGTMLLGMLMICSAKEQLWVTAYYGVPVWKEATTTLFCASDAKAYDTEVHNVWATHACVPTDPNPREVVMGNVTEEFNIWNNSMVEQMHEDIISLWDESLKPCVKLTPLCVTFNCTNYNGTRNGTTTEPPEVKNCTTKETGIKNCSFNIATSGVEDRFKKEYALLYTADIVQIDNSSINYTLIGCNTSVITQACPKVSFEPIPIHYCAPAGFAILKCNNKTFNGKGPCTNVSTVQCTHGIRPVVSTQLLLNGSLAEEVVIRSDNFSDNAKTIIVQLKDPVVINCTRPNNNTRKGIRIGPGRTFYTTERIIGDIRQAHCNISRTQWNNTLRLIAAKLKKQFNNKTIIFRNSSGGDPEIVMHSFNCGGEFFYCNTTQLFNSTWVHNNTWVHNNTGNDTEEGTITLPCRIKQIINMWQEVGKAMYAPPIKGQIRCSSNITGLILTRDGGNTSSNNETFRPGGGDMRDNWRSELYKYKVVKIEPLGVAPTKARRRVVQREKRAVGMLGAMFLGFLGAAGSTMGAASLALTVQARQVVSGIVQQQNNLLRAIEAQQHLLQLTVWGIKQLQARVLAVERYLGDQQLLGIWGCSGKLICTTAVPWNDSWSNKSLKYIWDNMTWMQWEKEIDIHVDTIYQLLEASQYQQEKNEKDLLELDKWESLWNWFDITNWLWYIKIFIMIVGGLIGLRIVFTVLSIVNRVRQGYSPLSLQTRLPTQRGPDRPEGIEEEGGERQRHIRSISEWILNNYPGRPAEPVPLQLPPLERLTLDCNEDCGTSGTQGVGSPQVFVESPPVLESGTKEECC

Row | Structure (SMILES) | CC50 [1] [µM] | Flu intensity [2] | pIC50 [3] | fold change (FC) [4] | Activity [5] [%]
1 | O=C(CNc1ccc(Cl)cc1)NC1CC2(CCCCC2)NC2(CCCCC2)C1 (centres undefined) | > 100 | 19.6 | 5.66 |  | 
2 | CCOC(=O)C1CCN(C(=O)c2cc3cc4c(cc3[nH]2)OCO4)CC1 |  | 26.2 | 4.20 | 0.13 | 
3 | CCOC(=O)C1CCN(C(=O)c2cc3ccc(Cl)cc3n2C)CC1 | 78.4 |  | < 4.00 |  | 
4 | CCOC(=O)C1CCN(C(=O)c2cc3c(C)cc(C)cc3n2C)CC1 | > 50.2 | 8.11 | < 4.00 | 0.3 | 
5 | CC1(C)CC(NC(=O)c2cc3cc(F)c(Cl)cc3[nH]2)CC(C)(C)N1 | 103 |  | 4.05 |  | 
6 | CC1(C)CC(NC(=O)c2cc3ccc(Cl)cc3[nH]2)CC(C)(C)N1 | 37.4 |  | < 4.00 |  | 
7 | CCOC(=O)C1CCN(C(=O)CNc2ccc3c(c2)OCO3)CC1 |  | 18.5 | < 4.00 |  | 
8 | CCOC(=O)C1CCN(C(=O)c2cc3cc(F)c(Cl)cc3n2C)CC1 | 41.1 |  | < 4.00 |  | 
9 | CCOC(=O)C1CCN(C(=O)c2cc3c(C)cc(C)cc3[nH]2)CC1 | > 200 | 8.14 | < 4.00 | 0.33 | 
10 | O=C(NC1CC2(CCCCC2)NC2(CCCCC2)C1)c1cc2c(F)c(Cl)ccc2[nH]1 (centres undefined) | 11.4 | 8.05 | 5.44 | 0.25 | 
11 | Cn1c(C(=O)NC2CC3(CCCCC3)NC3(CCCCC3)C2)cc2ccc(Cl)cc21 (centres undefined) | 33.9 |  | < 4.00 |  | 
12 | CCOC(=O)C1CCN(C(=O)c2cc3ccc(Cl)cc3[nH]2)CC1 | 52.6 |  | < 4.00 |  | 
13 | Cn1c(C(=O)NC2CC3(CCCCC3)NC3(CCCCC3)C2)cc2cc(F)c(Cl)cc21 (centres undefined) | 29.4 |  | < 4.00 |  | 
14 | CCOC(=O)C1CCN(C(=O)c2cc3cc(F)c(Cl)cc3[nH]2)CC1 | 121 |  | < 4.00 |  | 
15 | Cn1c(C(=O)NC2CC(C)(C)NC(C)(C)C2)cc2c(F)c(Cl)ccc21 | 13.9 | 6.74 | < 4.00 |  | 32
16 | CCOC(=O)C1CCN(C(=O)c2cc3c(F)c(Cl)ccc3n2C)CC1 | > 63.5 | 8.63 | < 4.00 | 0.76 | 
17 | CCOC(=O)C1CCN(C(=O)c2cc3c(F)c(Cl)ccc3[nH]2)CC1 | > 200 | 8.24 | < 4.00 | 0.42 | 
18 | O=C(NC1CC2(CCCCC2)NC2(CCCCC2)C1)c1cc2cc(F)c(Cl)cc2[nH]1 (centres undefined) | 11.3 |  | < 4.00 |  | 

Row | Structure (SMILES) | CC50 [1] [µM] | Flu intensity [2] | pIC50 [3] | fold change (FC) [4] | Activity [5] [%]
19 | CC1(C)CC(NC(=O)C(=O)Nc2ccc(Cl)cc2)CC(C)(C)N1 | 70.4 | 8.91 | 6.20 |  | 
20 | CC1(C)CC(NC(=O)c2cc3c(F)c(Cl)ccc3[nH]2)CC(C)(C)N1 | 19.4 | 8.55 | < 5.00 | 0.68 | 32
21 | CC1(C)CC(NC(=O)CNc2ccc(Cl)cc2)CC(C)(C)N1 |  | 30.2 | 4.43 | 0.22 | 
22 | Cc1cc(C)c2cc(C(=O)NC3CC4(CCCCC4)NC4(CCCCC4)C3)n(C)c2c1 (centres undefined) | > 13.5 | 7.96 | < 4.00 | 0.17 | 
23 | Cn1c(C(=O)NC2CC(C)(C)NC(C)(C)C2)cc2cc(Cl)ccc21 | 37.5 | 6.65 | < 4.00 |  | 
24 | Cc1cc(C)c2cc(C(=O)NC3CC(C)(C)NC(C)(C)C3)[nH]c2c1 | 60.3 | 8.08 | < 4.00 | 0.28 | 
25 | O=C(NC1CC2(CCCCC2)NC2(CCCCC2)C1)c1cc2cc3c(cc2[nH]1)OCO3 (centres undefined) | > 100 | 36.4 | 6.00 | 0.36 | 
26 | Cc1cc(C)c2cc(C(=O)NC3CC4(CCCCC4)NC4(CCCCC4)C3)[nH]c2c1 (centres undefined) | 9.6 | 5.27 | < 4.00 |  | 
27 | Cn1c(C(=O)NC2CC(C)(C)NC(C)(C)C2)cc2cc(F)c(Cl)cc21 | 18.7 |  | < 4.00 |  | 
28 | CC1(C)CC(NC(=O)c2cc3cc(Cl)ccc3[nH]2)CC(C)(C)N1 | 48.6 | 8.7 | 5.44 | 0.82 | 
29 | Cn1c(C(=O)NC2CC3(CCCCC3)NC3(CCCCC3)C2)cc2c(F)c(Cl)ccc21 (centres undefined) | 12.3 | 6.45 | < 4.00 |  | 
30 | CCOC(=O)C1CCN(C(=O)CNc2ccc(Cl)cc2)CC1 |  | 23.8 | < 4.00 | 0.081 | 
31 | O=C(CNc1ccc2c(c1)OCO2)NC1CC2(CCCCC2)NC2(CCCCC2)C1 (centres undefined) |  | 28.7 | 4.97 | 0.19 | 
32 | Cn1c(C(=O)NC2CC(C)(C)NC(C)(C)C2)cc2ccc(Cl)cc21 | 33.2 |  | < 4.00 |  | 27
33 | CC1(C)CC(NC(=O)CNc2ccc3c(c2)OCO3)CC(C)(C)N1 |  | 23.4 | < 4.52 | 0.073 | 
34 | Cc1cc(C)c2cc(C(=O)NC3CC(C)(C)NC(C)(C)C3)n(C)c2c1 | > 37.5 | 7.61 | < 4.00 |  | 
35 | CC1(C)CC(NC(=O)c2cc3cc4c(cc3[nH]2)OCO4)CC(C)(C)N1 |  | 30.7 | 4.64 | 0.23 | 
36 | O=C(NC1CC2(CCCCC2)NC2(CCCCC2)C1)c1cc2ccc(Cl)cc2[nH]1 (centres undefined) | 10.7 |  | < 4.00 |  | 11
